According to ChEMBL document CHEMBL1201862, “PubChem BioAssay data set” (2004):
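96-well plates; 48 h exposure; 5 concentrations. Endpoints by linear interpolation between flanking doses. Not reached: highest tested concentration assigned. Here, GI50 denotes the concentration required for 50% inhibition of growth.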 Active and inactive are the calls of the source. Rule as the data show it: active = GI50 up to about 1.1 µM and inactive = higher.

Tests used:
Experiment in all cases: NCI-60 cell line screen, 48 h
786-0 = tested on: 786-0
A498 = tested on: A498
CAKI-1 = tested on: CAKI-1
CCRF-CEM = tested on: CCRF-CEM
DLD-1 = tested on: DLD-1
HL-60 = tested on: HL-60
HOP-62 = tested on: HOP-62
HT-29 = tested on: HT-29
LOX IMVI = tested on: LOX IMVI
NCI-H226 = tested on: NCI-H226
NCI-H460 = tested on: NCI-H460
OVCAR-4 = tested on: OVCAR-4
SF-539 = tested on: SF-539
SK-MEL-5 = tested on: SK-MEL-5
SNB-19 = tested on: SNB-19
SNB-75 = tested on: SNB-75
SR = tested on: SR
TK-10 = tested on: TK-10
UACC-62 = tested on: UACC-62

Measured: GI50

CC(=O)c1ccc(NC(=O)/C(Cc2ccccn2)=N/NC(=O)C[N+](C)(C)C)cc1
inactive: 786-0 > 100 µM | A498 > 100 µM | CAKI-1 > 100 µM | CCRF-CEM > 100 µM | DLD-1 > 100 µM | HL-60 > 100 µM | HOP-62 > 100 µM | HT-29 > 100 µM | LOX IMVI > 100 µM | NCI-H226 > 100 µM | NCI-H460 > 100 µM | OVCAR-4 > 100 µM | SF-539 > 100 µM | SK-MEL-5 > 100 µM | SNB-19 > 100 µM | SNB-75 > 100 µM | SR > 100 µM | TK-10 > 100 µM | UACC-62 > 100 µM

CCCCOCN/C(N)=N/C#N
inactive: 786-0 33.9 µM | A498 > 100 µM | CAKI-1 > 100 µM | DLD-1 > 100 µM | HL-60 > 100 µM | HOP-62 > 100 µM | HT-29 > 100 µM | LOX IMVI 21.5 µM | NCI-H226 > 100 µM | NCI-H460 > 100 µM | OVCAR-4 64.1 µM | SF-539 > 100 µM | SK-MEL-5 > 100 µM | SNB-19 > 100 µM | SNB-75 > 100 µM | SR 19.6 µM | TK-10 > 100 µM | UACC-62 > 100 µM

CCc1cccc(C(C)C)c1NC(=O)/C(=N\NC(N)=O)C(C(=O)OC)c1cnc2ccccc2n1 (configuration not stated)
inactive: 786-0 60.8 µM | A498 > 100 µM | CAKI-1 > 100 µM | CCRF-CEM 39 µM | DLD-1 79.6 µM | HL-60 31.8 µM | HOP-62 40.6 µM | HT-29 35.8 µM | LOX IMVI 34.8 µM | NCI-H226 50.5 µM | NCI-H460 31.6 µM | OVCAR-4 87.7 µM | SF-539 52.7 µM | SK-MEL-5 18.7 µM | SNB-19 51.3 µM | SNB-75 47.4 µM | SR 46.5 µM | TK-10 > 100 µM | UACC-62 26 µM

COC(=O)C(C(=O)C(=O)Nc1ccc([N+](=O)[O-])cc1)c1nc2cc(C)c(C)cc2nc1O (configuration not stated)
inactive: 786-0 > 100 µM | A498 > 100 µM | CAKI-1 > 100 µM | CCRF-CEM > 100 µM | DLD-1 > 100 µM | HL-60 > 100 µM | HOP-62 > 100 µM | HT-29 > 100 µM | LOX IMVI > 100 µM | NCI-H226 > 100 µM | NCI-H460 > 100 µM | OVCAR-4 > 100 µM | SF-539 > 100 µM | SK-MEL-5 > 100 µM | SNB-19 > 100 µM | SNB-75 > 100 µM | SR > 100 µM | TK-10 > 100 µM | UACC-62 > 100 µM

Cc1nn(C)c(=O)c2nn(-c3ccccc3)c(C)c12
inactive: 786-0 > 100 µM | A498 > 100 µM | CAKI-1 > 100 µM | CCRF-CEM > 100 µM | DLD-1 > 100 µM | HL-60 > 100 µM | HOP-62 > 100 µM | HT-29 > 100 µM | LOX IMVI > 100 µM | NCI-H226 > 100 µM | NCI-H460 > 100 µM | OVCAR-4 > 100 µM | SF-539 > 100 µM | SK-MEL-5 > 100 µM | SNB-19 > 100 µM | SNB-75 > 100 µM | SR > 100 µM | TK-10 > 100 µM | UACC-62 > 100 µM

[N-]=[N+]=NC1C2CC3C4CC5CC3[C@H](C2)C(C5)C41 (some centres not stated)
inactive: 786-0 > 100 µM | A498 > 100 µM | CAKI-1 > 100 µM | CCRF-CEM > 100 µM | DLD-1 > 100 µM | HOP-62 > 100 µM | HT-29 > 100 µM | LOX IMVI > 100 µM | NCI-H226 75.3 µM | NCI-H460 > 100 µM | OVCAR-4 > 100 µM | SF-539 > 100 µM | SK-MEL-5 > 100 µM | SNB-19 > 100 µM | SNB-75 > 100 µM | SR > 100 µM | TK-10 > 100 µM | UACC-62 > 100 µM
